“Also recorded” adds a separate entry of the source.
What was measured:
[1] = test system: isolated islets; experiment: Heparan sulfate of islets isolated with free radical scavengers, Alcian blue staining; parameters: species or system mouse; conditions: combined: donors pretreated with BHA 120 mg/kg i.p. and islets isolated in presence of DMTU 50 mM
Text: Transplantation of pancreatic islets is a well established therapeutic approach for treating Type I diabetes in animals and patients. However, recovery of fully functional islets is crucial if successful transplantation is to occur, irrespective of the problems associated with the recipient's immune response against the allograft. Based on the data described herein, preservation of intra-islet heparan sulfate during islet isolation is an important factor in ensuring that normal islet function is retained. […] In fact, following isotransplantation intra-islet heparan sulfate was still depleted 3 days after transplantation but returned to normal levels 7 days post-transplant (FIG. 13). […] These observations indicate that a combination of heparan sulfate and free radical scavengers could be used to preserve beta cell heparan sulfate during islet isolation.

[2] = target: T1, heparanase (Homo sapiens, UniProt Q9Y251); experiment: Heparanase inhibitory activity (Freeman and Parish 1997 assay); assay type: biochemical
T1 sequence (Q9Y251 158-543 limits assumed): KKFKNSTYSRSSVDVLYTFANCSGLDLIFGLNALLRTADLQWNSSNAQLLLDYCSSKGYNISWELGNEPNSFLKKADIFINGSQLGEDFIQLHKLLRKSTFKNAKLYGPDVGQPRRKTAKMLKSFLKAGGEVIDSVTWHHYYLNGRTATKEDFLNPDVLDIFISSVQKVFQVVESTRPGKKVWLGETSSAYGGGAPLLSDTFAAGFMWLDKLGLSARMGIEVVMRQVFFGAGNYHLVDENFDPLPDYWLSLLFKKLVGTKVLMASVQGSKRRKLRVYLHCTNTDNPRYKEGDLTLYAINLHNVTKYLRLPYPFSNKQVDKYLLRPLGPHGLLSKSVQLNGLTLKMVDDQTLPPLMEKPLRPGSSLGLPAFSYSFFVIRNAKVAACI
T1 sequence (Q9Y251 36-109 limits assumed): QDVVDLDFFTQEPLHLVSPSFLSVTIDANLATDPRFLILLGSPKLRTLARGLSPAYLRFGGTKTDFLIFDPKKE

[3] = test system: islet beta cells; experiment: Hydrogen peroxide (ROS)-induced beta cell death after culture, Sytox green uptake; assay type: cell-based, mouse; conditions: for Resistance to H2O2 (ROS): then 30% H2O2 for 5 min; for ability to retain beta cell viability and induce ROS resistance (in words): summary of Table 3
[4] = test system: isolated BALB/c islet beta cells; experiment: Culture-induced death of isolated islet beta cells, Sytox green uptake by flow cytometry; assay type: cell-based, mouse; conditions: for Viability (%): untreated control 25-30% viability
Text: (§1) Pancreatic islets were isolated from non-diabetic BALB/c mice and dissociated into a single cell suspension (>90% beta cells) by Dispase digestion. Following 2 days culture in standard tissue culture medium 62% of the beta cells were dead, based on uptake of the fluorescent DNA binding dye, Sytox green (FIG. 4, upper panels). […] In the presence of heparin the highly viable Calcein^+, PI^−population of beta cells was increased from 25% to 86%, the dead population. (Calcein^−, PI^+) reduced from 18% to 1% and the apoptotic population (Calcein^+, PI^+) improved from 52% to 6%. […] Table 1 provides a statistical analysis of the data showing that heparin, highly sulfated heparan sulfate (HS^hi) and PI-88 can protect mouse beta cells from culture-induced cell death.
(§2) The impact of heparin treatment on beta cell viability was also independent of the source of heparin (FIG. 8a) and, based on viable cell numbers, was not observed after 1 h but did occur after continuous culture with heparin for 1-2 days (FIG. 8b).

[5] = test system: islet beta cells; experiment: Insulin content of beta cells from islets isolated in the presence of heparin, flow cytometry; assay type: cell-based, mouse; conditions: heparin 50 μg/ml in the islet isolation medium
Protocol: This deficiency in intra-islet heparan sulfate persisted for at least 3 days after transplantation of the islets into histocompatible recipients, normal heparan sulfate levels only being regained 7 days post-transplantation (FIG. 13). Inclusion of heparin (50 μg/ml) in the islet isolation medium improved the insulin content of the islet beta cells 2-fold (FIG. 14).

[6] = test system: isolated BALB/c islet beta cells; experiment: Beta cell viability by Calcein-AM / propidium iodide staining, flow cytometry; assay type: cell-based, mouse; conditions: 50 μg/ml, 2 days culture
Text: as §1

[7] = test system: islet beta cells; experiment: Intracellular insulin content of cultured beta cells; assay type: cell-based, mouse; conditions: 50 μg/ml, 2 days culture
Protocol: Comparison of the ability of HS^hi (50 μg/ml) and undersulfated HS(HS^lo, 50 μg/ml) to protect beta cells from 2 day culture-induced cell death, as shown by Sytox green uptake (upper panels). Lower panels depict the intracellular insulin content (green histograms) of the different preparations of cultured islet cells. Serum control (red histograms) and islet cell autofluorescence (black histograms) are also shown. 85-88% of the cultured islet cells were insulin^+ beta cells.
as §2

[8] = 50 μg/ml, 2 days culture, Sytox green

Hpse inhibition [2] | Compound | Resistance to H2O2 (ROS) ([3]; 50 μg/ml, 2 days culture) | Viability (%) [4, 8] [%] | further results
− | Chitosan | − | 30 | 
± | Chondroitin sulfate A | − | 50 | 
− | Chondroitin sulfate B | − | 46 | 
− | Chondroitin sulfate C | − | 32 | 
++ | Dextran sulfate | ++++ |  | ability to retain beta cell viability and induce ROS resistance (in words) ([3]; 50 μg/ml, 2 days culture): induced high beta cell viability and ROS resistance
+++ | Maltopentaose sulfate | ++++ |  | ability to retain beta cell viability and induce ROS resistance (in words) ([3]; 50 μg/ml, 2 days culture): induced high beta cell viability and ROS resistance

Continued, compound first:

Compound | Hpse inhibition [2] | Resistance to H2O2 (ROS) ([3]; 50 μg/ml, 2 days culture) | Viability (%) [4, 8] [%] | further results
COc1ccc(O)c(C(C)(C)C)c1 [BHA, butylated hydroxyanisole] |  |  |  | Alcian blue staining for heparan sulfate of isolated islets (in words) [1]: increased
CNC(=S)NC [DMTU, dimethylthiourea] |  |  |  | Alcian blue staining for heparan sulfate of isolated islets (in words) [1]: increased
Bis-lactobionic acid amide (C12 link) |  | − |  | heparanase inhibition (in words) [2]: strong to very strong heparanase inhibitors; protection from peroxide (ROS)-induced cell death / induction of ROS resistance (in words) ([3]; 50 μg/ml, 2 days culture): essentially unable to induce islet beta cells to become ROS resistance
Chondroitin sulfate D | ± | − | 32 | 
Heparin |  |  |  | insulin content of islet beta cells, increase over control [5]: 2 fold; % viable after hydrogen peroxide treatment ([3]; 2 days culture with 50 μg/ml): 95%; % cell death following hydrogen peroxide treatment ([3]; heparin 50 μg/ml co-culture, freshly isolated cells 96.1% cell death): 5.0%; dead population (Calcein−, PI+) ([6]; control 18%): 1%; Calcein+, PI− population of beta cells (highly viable) ([6]; control 25%): 86%; apoptotic population (Calcein+, PI+) ([6]; control 52%): 6%; % beta cells Calceln − PI− (cell debris) ([6]; n = 3-5/group): 9.75 ± 1.9%; beta cell survival at 5 μg/ml (in words) ([4]; 5 μg/ml, 2 days culture): equally active; also recorded: preserved beta cell survival; protection from culture-induced cell death / beta cell survival (in words) [4, 8]: dramatically enhanced; % dead beta cells in culture (Sytox green) ([4]; heparin 50 μg/ml co-culture, controls 72.5% dead): 5.3%; change in the insulin content of cultured beta cells (in words) [7]: little or no change
O-α-D-Glucopyranosyl-{(1→4)—O-α-D-glucopyranosyl}4-(1→4)-D-glucopyranose sulfate [Maltohexaose sulfate] | +++ | ++++ |  | ability to retain beta cell viability and induce ROS resistance (in words) ([3]; 50 μg/ml, 2 days culture): induced high beta cell viability and ROS resistance

Source: patent US20130143840A1, “HEPARAN SULFATE REPLACEMENT THERAPY” (priority 2010, published 2013)
